Experimental findings from US20160318987A1 (MEDIMMUNE LIMITED, priority 2013, published 2016) are described below.

Data set [1] addresses T1, hGluc-R (Homo sapiens, UniProt P47871).
T1 construct: expressed in transfected cells
Nature of the data set: cAMP functional assay, cells expressing human glucagon receptor (primary assay). Format: cell-based. The settings on record: n = 2.

For data set [2], the target named is T2, hGLP-1R (Homo sapiens, UniProt P43220).
T2 construct: expressed in transfected cells
T2 sequence (P43220 24-463): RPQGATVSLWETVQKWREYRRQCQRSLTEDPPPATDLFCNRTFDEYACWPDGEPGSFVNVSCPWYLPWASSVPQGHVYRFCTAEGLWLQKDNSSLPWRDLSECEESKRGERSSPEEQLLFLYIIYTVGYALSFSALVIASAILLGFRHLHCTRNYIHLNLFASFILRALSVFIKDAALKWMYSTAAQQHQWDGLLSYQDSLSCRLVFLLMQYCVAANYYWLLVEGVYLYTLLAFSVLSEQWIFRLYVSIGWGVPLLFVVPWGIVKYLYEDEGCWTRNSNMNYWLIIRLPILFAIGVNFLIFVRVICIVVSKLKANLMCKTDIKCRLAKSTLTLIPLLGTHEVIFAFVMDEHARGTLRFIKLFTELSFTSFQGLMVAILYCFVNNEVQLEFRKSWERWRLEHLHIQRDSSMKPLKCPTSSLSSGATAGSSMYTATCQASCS
The experiment in a line: cAMP functional assay, cells expressing human GLP-1 receptor (primary assay). It is filed as cell-based. The note with it: n = 2.

For data set [3], the target named is T3, hGIP-R (Homo sapiens, UniProt P48546).
T3 construct: expressed in transfected cells
T3 sequence (P48546 22-466): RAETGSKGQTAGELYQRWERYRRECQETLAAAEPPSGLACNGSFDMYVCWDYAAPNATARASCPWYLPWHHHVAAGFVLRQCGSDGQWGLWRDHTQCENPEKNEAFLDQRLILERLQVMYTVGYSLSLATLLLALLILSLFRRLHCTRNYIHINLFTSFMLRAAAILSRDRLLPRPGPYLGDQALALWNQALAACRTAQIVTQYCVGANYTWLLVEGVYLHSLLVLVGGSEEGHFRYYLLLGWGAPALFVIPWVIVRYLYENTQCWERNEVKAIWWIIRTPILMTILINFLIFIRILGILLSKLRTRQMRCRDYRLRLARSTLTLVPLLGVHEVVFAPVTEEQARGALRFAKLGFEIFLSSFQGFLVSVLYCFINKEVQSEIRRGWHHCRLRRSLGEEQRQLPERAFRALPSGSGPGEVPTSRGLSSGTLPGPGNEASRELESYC
Nature of the data set: cAMP functional assay, cells expressing human GIP receptor (primary assay). The note with it: n = 2. It is filed as cell-based.

Data set [4] addresses T4, Chymotrypsin (rhCTRC) (Homo sapiens, UniProt Q99895).
T4 construct: purchased R&D Systems 6907-SE-010
T4 sequence (Q99895 30-268): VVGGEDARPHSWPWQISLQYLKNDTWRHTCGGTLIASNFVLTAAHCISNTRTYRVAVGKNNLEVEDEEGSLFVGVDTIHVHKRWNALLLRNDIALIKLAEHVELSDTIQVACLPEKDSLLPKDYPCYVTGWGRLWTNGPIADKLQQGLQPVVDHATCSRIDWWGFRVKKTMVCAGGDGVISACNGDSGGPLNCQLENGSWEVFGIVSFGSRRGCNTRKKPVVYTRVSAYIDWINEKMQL
Nature of the data set: chymotrypsin stability study (LC/MS). The note with it: for Chymotrypsin cleavage/liability (Discussion / Description): Table 2 description. Format: in vitro ADME. On the procedure: (§1) Peptides for evaluation were prepared to a concentration of 1.0 mg/mL solutions in either pure water, sterile saline for injection (0.9% w/v NaCl/water) or 1× PBS (Dulbecco). 100 μL (100 μg/mL peptide) of these solutions was added to 900 μL of each protease solution. Additional experiments were performed examining protein degradation during exposure to serum and gastric fluid. For serum studies, peptides were incubated with 50% female Sprague-Dawley strain rat serum (SD rat serum). For gastric fluid studies, peptides were incubated 1:1 (volume:volume), fresh rat gastric fluid.
(§2) The peptide and enzyme (or serum or gastric fluid) were co-incubated in a temperature regulated water bath at 37° C. for the duration of the experiment. During each experiment 100 μL aliquots (10 μg peptide) of the incubated peptide-enzyme mixture were withdrawn periodically, quenched by addition of an equal volume of 5% TFA (v/v) in 1:1 water/acetonitrile to arrest proteolytic activity, and analyzed by liquid chromatography-mass spectrometry (LC/MS): Agilent Polaris C8-A column (4.6×100 mm, 3 micron) using a linear binary gradient of 10-90% MeCN (0.1% TFA v/v) in water (0.1% TFA v/v) over 30 minutes at 1.5 mL min^−1 at ambient temperature. Analytes were detected by both UV absorption at 210 nm and ionization using a Waters 3100 mass detector (ESI^+ mode). New peptidic species (fragments) derived from enzymatic cleavage of peptides were analyzed post-process, and their molecular masses were used to identify the precise cleavage position (highlighting the scissile bond in each case).

In data set [5] the target is T5, trypsin from porcine pancreas (Sus scrofa, UniProt P00761).
T5 construct: purchased Sigma P7409; host or cells: porcine pancreas
T5 sequence (P00761 9-231): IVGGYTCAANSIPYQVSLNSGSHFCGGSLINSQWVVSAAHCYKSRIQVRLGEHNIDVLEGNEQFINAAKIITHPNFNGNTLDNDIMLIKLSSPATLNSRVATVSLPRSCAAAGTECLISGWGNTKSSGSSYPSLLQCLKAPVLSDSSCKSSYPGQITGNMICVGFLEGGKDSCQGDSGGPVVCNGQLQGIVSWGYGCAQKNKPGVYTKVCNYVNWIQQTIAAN
Nature of the data set: trypsin stability study (LC/MS). The note with it: trypsin, 37° C. Format: in vitro ADME. The method, then:
as §1, §2

In data set [6] the test system is DPP-IV, Neprilysin, Chymotrypsin, Trypsin, Pepsin. The experiment in a line: enzyme resistance, protease panel (Table 2 description). Format: in vitro ADME. The method, then:
as §1, §2

*1 amine or outer side, *2 acyl side, *3 side chain or, on linkers, in order; H or OH if unused. Where a SMILES comes first, the peptide text is derived from it. Side-chain parts run from the residue outwards. [ ]: non-standard residue; d: D form. The star is where a group is joined. γGlu = O=C(O)[C@H](CCC(=O)[*:2])N[*:1]; Palmitoyl = CCCCCCCCCCCCCCCC(=O)*; αMeF = C[C@](N)(Cc1ccccc1)C(=O)O; αMeK = C[C@](N)(CCCCN)C(=O)O; αMeV = CC(C)[C@](C)(N)C(=O)O; Aib = CC(C)(N)C(=O)O

T1 sequence (P47871 26-477): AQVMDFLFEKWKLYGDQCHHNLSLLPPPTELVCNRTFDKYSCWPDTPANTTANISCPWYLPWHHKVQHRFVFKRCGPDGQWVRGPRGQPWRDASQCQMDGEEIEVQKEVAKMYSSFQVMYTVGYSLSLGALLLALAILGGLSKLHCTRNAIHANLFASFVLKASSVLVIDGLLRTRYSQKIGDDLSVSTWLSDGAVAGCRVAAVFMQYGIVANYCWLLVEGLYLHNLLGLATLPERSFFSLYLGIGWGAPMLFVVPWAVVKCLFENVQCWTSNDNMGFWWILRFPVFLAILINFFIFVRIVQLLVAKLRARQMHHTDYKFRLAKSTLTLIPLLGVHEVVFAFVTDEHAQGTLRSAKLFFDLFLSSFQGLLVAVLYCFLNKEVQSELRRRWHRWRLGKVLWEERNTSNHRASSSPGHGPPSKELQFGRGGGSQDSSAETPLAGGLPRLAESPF

By EC50 is commonly meant the concentration giving half of the maximal effect. As to `CC[C@H](C)[C@H](NC(=O)[C@](C)(Cc1ccccc1)NC(=O)[C@H](CCC(=O)O)NC(=O)[C@](C)(CCCCN)NC(=O)[C@H](C)NC(=O)[C@H](C)NC(=O)[C@H](CCC(N)=O)NC(=O)CNC(=O)[C@H](CCC(=O)O)NC(=O)[C@H](CC(C)C)NC(=O)[C@](C)(Cc1ccccc1)NC(=O)[C@H](CO)NC(=O)[C@H](CO)NC(=O)[C@@H](NC(=O)[C@H](CC(=O)O)NC(=O)[C@H](CO)NC(=O)[C@@H](NC(=O)[C@](C)(Cc1ccccc1)NC(=O)[C@H](CO)NC(=O)CNC(=O)[C@H](CCC(=O)O)NC(=O)C(C)(C)NC(=O)[C@@H](N)Cc1c[nH]cn1)[C@@H](C)O)C(C)C)C(=O)N[C@@H](C)C(=O)N[C@@](C)(Cc1ccccc1)C(=O)N[C@H](C(=O)N[C@H](C(=O)N[C@@](C)(CCCCN)C(=O)NCC(=O)NCC(N)=O)C(C)C)C(C)C` [SEQ ID NO: 51, H-(Aib)^2-EG-(S)^5-(α-MeF)^6-TSDV^10 SS-(α-MeF)^13-LE^15 GQAA-(α-MeK)^20 E-(α-MeF)^22-IA-(α-MeF)^25-(V)^26-V-(α-MeK)^28-G-(G)^30] (H-H[Aib]EGS[αMeF]TSDVSS[αMeF]LEGQAA[αMeK]E[αMeF]IA[αMeF]VV[αMeK]GG-NH2), the results for the EC50 in data set [1], in data set [2] and in data set [3] were 104 nM, 0.0219 nM and 104 nM, respectively. In data set [4], the “Chymotrypsin cleavage/liability (Discussion / Description)” value is given as “overcoming Chymotrypsin”. Further, in data set [4] (chymotrypsin, 37° C.), the “duration of stability, no major cleavage products” value is “over 60 hours”. Also, the duration of stability result in data set [5] was “over 18 hours”.

As to `CCCCCCCCCCCCCCCC(=O)N[C@@H](CCC(=O)NCCCC[C@H](NC(=O)CNC(=O)CNC(=O)[C@](C)(CCCCN)NC(=O)[C@@H](NC(=O)[C@@H](NC(=O)[C@](C)(Cc1ccccc1)NC(=O)[C@H](C)NC(=O)[C@@H](NC(=O)[C@](C)(Cc1ccccc1)NC(=O)[C@H](CCC(=O)O)NC(=O)[C@](C)(CCCCN)NC(=O)[C@H](C)NC(=O)[C@H](C)NC(=O)[C@H](CCC(=O)O)NC(=O)CNC(=O)[C@H](CCC(=O)O)NC(=O)[C@H](CC(C)C)NC(=O)[C@](C)(Cc1ccccc1)NC(=O)[C@H](CO)NC(=O)[C@H](CO)NC(=O)[C@@H](NC(=O)[C@H](CC(=O)O)NC(=O)[C@H](CO)NC(=O)[C@@H](NC(=O)[C@](C)(Cc1ccccc1)NC(=O)[C@H](CO)NC(=O)CNC(=O)[C@H](CCC(=O)O)NC(=O)C(C)(C)NC(=O)[C@@H](N)Cc1c[nH]cn1)[C@@H](C)O)C(C)C)[C@@H](C)CC)C(C)C)C(C)C)C(N)=O)C(=O)O` [SEQ ID NO: 59, H-(Aib)^2-EG-(S)^5-(α-MeF)^6-TSDV^10 SS-(α-MeF)^13-LE^15 G-(E)^17-AA-(α-MeK)^20 E-(α-MeF)^22-IA-(α-MeF)^25-(V)^26-V-(α-MeK)^28-G-(G)^30-K(Ε-γ-E-Palm)] (H-H[Aib]EGS[αMeF]TSDVSS[αMeF]LEGEAA[αMeK]E[αMeF]IA[αMeF]VV[αMeK]GGK([γGlu-Palmitoyl])-NH2), the EC50 in data set [1] was determined as 89.8 nM; in data set [2], 0.218 nM; in data set [3] it was 89.8 nM. Besides, the “enzyme resistance (DPP-IV, Neprilysin, Chymotrypsin, Trypsin, Pepsin)” value (from here on “enzyme resistance”) in data set [6] is “Excellent enzyme resistance”.

For `CC[C@H](C)[C@H](NC(=O)[C@](C)(Cc1ccccc1)NC(=O)[C@H](CCC(=O)O)NC(=O)[C@H](CCCCN)NC(=O)[C@H](C)NC(=O)[C@H](C)NC(=O)[C@H](CCC(N)=O)NC(=O)CNC(=O)[C@H](CCC(=O)O)NC(=O)[C@H](CC(C)C)NC(=O)[C@](C)(Cc1ccccc1)NC(=O)[C@H](CO)NC(=O)[C@H](CO)NC(=O)[C@@H](NC(=O)[C@H](CC(=O)O)NC(=O)[C@H](CO)NC(=O)[C@@H](NC(=O)[C@](C)(Cc1ccccc1)NC(=O)[C@H](CO)NC(=O)CNC(=O)[C@H](CCC(=O)O)NC(=O)C(C)(C)NC(=O)[C@@H](N)Cc1c[nH]cn1)[C@@H](C)O)C(C)C)C(=O)N[C@@H](C)C(=O)N[C@@](C)(Cc1ccccc1)C(=O)N[C@@H](CC(C)C)C(=O)N[C@](C)(C(=O)N[C@@H](CCCCN)C(=O)NCC(=O)N[C@@H](CCCNC(=N)N)C(N)=O)C(C)C` [SEQ ID NO: 41, H-(Aib)^2-EG-(S)^5-(α-MeF)^6-TSDV^10 SS-(α-MeF)^13-LE^15 GQAAK^20 E-(α-MeF)^22-IA-(α-MeF)^25 L-(α-MeV)^27-KGR^30] (H-H[Aib]EGS[αMeF]TSDVSS[αMeF]LEGQAAKE[αMeF]IA[αMeF]L[αMeV]KGR-NH2), the values for the EC50 in data set [2] and in data set [3] were 0.0546 nM and 102 nM, respectively. In data set [4], the “Chymotrypsin cleavage/liability (Discussion / Description)” value is listed as “MeVal^27 overcomes”.

Turning to `CC[C@H](C)[C@H](NC(=O)[C@](C)(Cc1ccccc1)NC(=O)[C@H](CCC(=O)O)NC(=O)[C@](C)(CCCCN)NC(=O)[C@H](C)NC(=O)[C@H](C)NC(=O)[C@H](CCC(=O)O)NC(=O)CNC(=O)[C@H](CCC(=O)O)NC(=O)[C@H](CC(C)C)NC(=O)[C@](C)(Cc1ccccc1)NC(=O)[C@H](CO)NC(=O)[C@H](CO)NC(=O)[C@@H](NC(=O)[C@H](CC(=O)O)NC(=O)[C@H](CO)NC(=O)[C@@H](NC(=O)[C@](C)(Cc1ccccc1)NC(=O)[C@H](CO)NC(=O)CNC(=O)[C@H](CCC(=O)O)NC(=O)C(C)(C)NC(=O)[C@@H](N)Cc1c[nH]cn1)[C@@H](C)O)C(C)C)C(=O)N[C@@H](C)C(=O)N[C@@](C)(Cc1ccccc1)C(=O)N[C@H](C(=O)N[C@H](C(=O)N[C@@](C)(CCCCN)C(=O)NCC(=O)NCC(N)=O)C(C)C)C(C)C` [SEQ ID NO: 60, H-(Aib)^2-EG-(S)^5-(α-MeF)^6-TSDV^10 SS-(α-MeF)^13-LE^15 G-(E)^17-AA-(α-MeK)^20 E-(α-MeF)^22-IA-(α-MeF)^25-(V)^26-V-(α-MeK)^28-G-(G)^30], the EC50 worked out at 66.3 nM in data set [1], 0.0212 nM in data set [2] and 104 nM in data set [3]. In data set [6], the “enzyme resistance” value was “Excellent enzyme resistance”.

In the case of `CC[C@H](C)[C@H](NC(=O)[C@](C)(Cc1ccccc1)NC(=O)[C@H](CCC(=O)O)NC(=O)[C@](C)(CCCCN)NC(=O)[C@H](C)NC(=O)[C@H](C)NC(=O)[C@H](CCC(=O)O)NC(=O)CNC(=O)[C@H](CCC(=O)O)NC(=O)[C@H](CC(C)C)NC(=O)[C@](C)(Cc1ccccc1)NC(=O)[C@H](CO)NC(=O)[C@H](CO)NC(=O)[C@@H](NC(=O)[C@H](CC(=O)O)NC(=O)[C@H](CO)NC(=O)[C@@H](NC(=O)[C@](C)(Cc1ccccc1)NC(=O)[C@H](CO)NC(=O)CNC(=O)[C@H](CCC(=O)O)NC(=O)C(C)(C)NC(=O)[C@@H](N)Cc1c[nH]cn1)[C@@H](C)O)C(C)C)C(=O)N[C@@H](C)C(=O)N[C@@](C)(Cc1ccccc1)C(=O)N[C@H](C(=O)N[C@H](C(=O)N[C@@](C)(CCCCN)C(=O)NCC(=O)NCC(=O)N[C@@H](CCCCN)C(N)=O)C(C)C)C(C)C` [SEQ ID NO: 61, H-(Aib)^2-EG-(S)^5-(α-MeF)^6-TSDV^10 SS-(α-MeF)^13-LE^15 G-(E)^17-AA-(α-MeK)^20 E-(α-MeF)^22-IA-(α-MeF)^25-(V)^26-V-(α-MeK)^28-G-(G)^30-(K)^31] (H-H[Aib]EGS[αMeF]TSDVSS[αMeF]LEGEAA[αMeK]E[αMeF]IA[αMeF]VV[αMeK]GGK-NH2), the values for the EC50 in data set [1], in data set [2] and in data set [3] were 30.4 nM, 0.034 nM and 99.7 nM, respectively. Besides, in data set [6], the “enzyme resistance” value was “Excellent enzyme resistance”.
